# Results reported in PubChem BioAssay AID330 (DTP/NCI, 2004).
# “And” between values parts separate entries of the source, which are not always exact repeats. Equal values may be shown once. Toxic doses and inconclusive results are not listed.
# Test system: P388 leukemia ip, CD2F1 mice, survival T/C
# Experiment: NCI In Vivo Anticancer Drug Screen. Data for tumor model P388 Leukemia (intraperitoneal) in CD2F1 (CDF1) mice
# Settings: endpoint: median survival time, higher = longer survival
# Summary of the method: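 Mice carrying the transplanted tumor received test compound or vehicle. Survival was recorded in each group, and the value is the treated-group measurement divided by that of the vehicle-treated control group.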
# [1] = dose: 100.0 mg/kg/injection, schedule: Q04DX003 (ip), vehicle: saline
# [2] = dose: 200.0 mg/kg/injection, schedule: Q04DX003 (ip), vehicle: saline
# [3] = dose: 12.5 mg/kg/injection, schedule: Q01DX009 (ip), vehicle: saline with Tween-80
# [4] = dose: 15.0 mg/kg/injection, schedule: Q01DX005 (ip), vehicle: saline with Tween-80
# [5] = dose: 50.0 mg/kg/injection, schedule: Q01DX005 (ip), vehicle: Klucel (hydroxypropylcellulose) (HPC)
# [6] = dose: 100.0 mg/kg/injection, schedule: Q01DX005 (ip), vehicle: Klucel (hydroxypropylcellulose) (HPC)
# [7] = dose: 200.0 mg/kg/injection, schedule: Q01DX005 (ip), vehicle: Klucel (hydroxypropylcellulose) (HPC)
# [8] = dose: 50.0 mg/kg/injection, schedule: Q04DX003 (ip), vehicle: saline
# [9] = dose: 50.0 mg/kg/injection, schedule: Q01DX009 (ip), vehicle: Klucel (hydroxypropylcellulose) (HPC)
# [10] = dose: 100.0 mg/kg/injection, schedule: Q01DX009 (ip), vehicle: Klucel (hydroxypropylcellulose) (HPC)
# [11] = dose: 200.0 mg/kg/injection, schedule: Q01DX009 (ip), vehicle: Klucel (hydroxypropylcellulose) (HPC)
smiles,measurement,setting,value
COC1=CC(=O)C(c2cc(OC(C)=O)c(OC)cc2OC(C)=O)=CC1=O,T/C,"dose: 6.0 mg/kg/injection, schedule: Q01DX005 (ip), vehicle: saline + Tween-80 + alcohol",108 % of control
same,T/C,"dose: 12.0 mg/kg/injection, schedule: Q01DX005 (ip), vehicle: saline + Tween-80 + alcohol",100 % of control
same,T/C,"dose: 25.0 mg/kg/injection, schedule: Q01DX005 (ip), vehicle: saline + Tween-80 + alcohol",105 % of control
Cc1ccc(S(=O)(=O)CN(CN2C(=O)CCC2=O)c2ccc(Cl)cc2)cc1,T/C,"dose: 15.0 mg/kg/injection, schedule: Q01DX005 (ip), vehicle: Klucel (hydroxypropylcellulose) (HPC)",101 % of control
same,T/C,"dose: 30.0 mg/kg/injection, schedule: Q01DX005 (ip), vehicle: Klucel (hydroxypropylcellulose) (HPC)",95 % of control
same,T/C,"dose: 60.0 mg/kg/injection, schedule: Q01DX005 (ip), vehicle: Klucel (hydroxypropylcellulose) (HPC)",91 % of control and 93 % of control
same,T/C,"dose: 240.0 mg/kg/injection, schedule: Q01DX005 (ip), vehicle: Klucel (hydroxypropylcellulose) (HPC)",90 % of control
CN(C)C(=C1C=CC=C/C1=N/S(=O)(=O)c1ccccc1)N(C)C,T/C,[1],103 % of control
same,T/C,[2],108 % of control
same,T/C,"dose: 400.0 mg/kg/injection, schedule: Q04DX003 (ip), vehicle: saline",105 % of control
O=c1[nH]c(=O)c2c(Br)[nH]nc2[nH]1,T/C,"dose: 100.0 mg/kg/injection, schedule: Q01DX001 (ip), vehicle: Klucel (hydroxypropylcellulose) (HPC)",110 % of control
same,T/C,"dose: 200.0 mg/kg/injection, schedule: Q01DX001 (ip), vehicle: Klucel (hydroxypropylcellulose) (HPC)",103 % of control
O=C1NNCc2c1oc1ccccc21,T/C,"dose: 6.25 mg/kg/injection, schedule: Q01DX009 (ip), vehicle: saline with Tween-80",95 % of control
same,T/C,[3],92 % of control
same,T/C,"dose: 25.0 mg/kg/injection, schedule: Q01DX009 (ip), vehicle: saline with Tween-80",99 % of control
Cc1ccc(NC(=O)N(CCCl)N=O)cc1NC(=O)N(CCCl)N=O,T/C,"dose: 0.1 mg/kg/injection, schedule: Q01DX009 (ip), vehicle: other",120 % of control
same,T/C,"dose: 0.1 mg/kg/injection, schedule: Q01DX009 (ip), vehicle: saline + alcohol",116 % of control
same,T/C,"dose: 0.25 mg/kg/injection, schedule: Q04DX003 (ip), vehicle: other",113 % of control
same,T/C,"dose: 0.5 mg/kg/injection, schedule: Q04DX003 (ip), vehicle: other",118 % of control
same,T/C,"dose: 0.75 mg/kg/injection, schedule: Q01DX009 (ip), vehicle: other",161 % of control
same,T/C,"dose: 1.0 mg/kg/injection, schedule: Q01DX009 (ip), vehicle: other",159 % of control
same,T/C,"dose: 1.0 mg/kg/injection, schedule: Q04DX003 (ip), vehicle: other",113 % of control
same,T/C,"dose: 1.32 mg/kg/injection, schedule: Q01DX009 (ip), vehicle: saline with Tween-80",154 % of control
same,T/C,"dose: 1.5 mg/kg/injection, schedule: Q01DX009 (ip), vehicle: other",175 % of control
same,T/C,"dose: 2.0 mg/kg/injection, schedule: Q01DX009 (ip), vehicle: saline with Tween-80",181 % of control
same,T/C,"dose: 2.0 mg/kg/injection, schedule: Q04DX003 (ip), vehicle: other",154 % of control
same,T/C,"dose: 3.0 mg/kg/injection, schedule: Q01DX009 (ip), vehicle: other",221 % of control
same,T/C,"dose: 3.0 mg/kg/injection, schedule: Q01DX009 (ip), vehicle: saline with Tween-80",155 % of control and 209 % of control
same,T/C,"dose: 3.13 mg/kg/injection, schedule: Q01DX009 (ip), vehicle: other",177 % of control
same,T/C,"dose: 4.5 mg/kg/injection, schedule: Q01DX009 (ip), vehicle: saline with Tween-80",245 % of control
same,T/C,"dose: 6.25 mg/kg/injection, schedule: Q01DX009 (ip), vehicle: other",209 % of control
same,T/C,"dose: 12.5 mg/kg/injection, schedule: Q01DX009 (ip), vehicle: other",222 % of control
O=C1N=CC2(N=N2)C(=O)N1,T/C,"dose: 3.75 mg/kg/injection, schedule: Q01DX005 (ip), vehicle: saline with Tween-80",161 % of control
same,T/C,"dose: 7.5 mg/kg/injection, schedule: Q01DX005 (ip), vehicle: saline with Tween-80",155 % of control and 168 % of control
same,T/C,[4],178 % of control and 190 % of control
C(=C\c1cc2cc(C3=NCCN3)ccc2o1)/c1ccc(C2=NCCN2)cc1,T/C,[1],153 % of control and 157 % of control
CC(C)(C)C(O)c1cccnc1 (stereo not given),T/C,"dose: 100.0 mg/kg/injection, schedule: Q04DX003 (ip), vehicle: saline with Tween-80",110 % of control
same,T/C,"dose: 200.0 mg/kg/injection, schedule: Q04DX003 (ip), vehicle: saline with Tween-80",101 % of control
COc1ccc2c(c1)OC(C)(C)C(c1ccccc1)=C2c1ccc(OCCBr)cc1,T/C,[5],101 % of control
same,T/C,[6],98 % of control
same,T/C,[7],100 % of control
CCCCCCCCOP(=O)(N1CC1C)N1CC1C (stereo not given),T/C,[3],113 % of control
same,T/C,"dose: 25.0 mg/kg/injection, schedule: Q04DX003 (ip), vehicle: saline",109 % of control
same,T/C,"dose: 50.0 mg/kg/injection, schedule: Q01DX009 (ip), vehicle: saline with Tween-80",158 % of control and 168 % of control
same,T/C,[8],113 % of control
CN1C(C)(C)CC(O)(C(=O)O)CC1(C)C,T/C,"dose: 50.0 mg/kg/injection, schedule: Q01DX005 (ip), vehicle: saline",94 % of control
same,T/C,"dose: 100.0 mg/kg/injection, schedule: Q01DX005 (ip), vehicle: saline",91 % of control
same,T/C,"dose: 200.0 mg/kg/injection, schedule: Q01DX005 (ip), vehicle: saline",87 % of control
NC(=O)c1c[n+]([O-])ccc1[N+](=O)[O-],T/C,"dose: 6.25 mg/kg/injection, schedule: Q01DX009 (ip), vehicle: Klucel (hydroxypropylcellulose) (HPC)",108 % of control
same,T/C,"dose: 12.5 mg/kg/injection, schedule: Q01DX009 (ip), vehicle: Klucel (hydroxypropylcellulose) (HPC)",117 % of control
same,T/C,"dose: 25.0 mg/kg/injection, schedule: Q01DX009 (ip), vehicle: Klucel (hydroxypropylcellulose) (HPC)",117 % of control
same,T/C,[9],119 % of control
O=c1oc2ccccc2cc1-c1ccc(Br)c2ccccc12,T/C,[9],93 % of control
same,T/C,[10],100 % of control
same,T/C,[11],95 % of control
Oc1c(Cl)c2nc3ccccc3nc2c2ccccc12,T/C,[4],100 % of control
same,T/C,"dose: 30.0 mg/kg/injection, schedule: Q01DX005 (ip), vehicle: saline with Tween-80",102 % of control
same,T/C,"dose: 60.0 mg/kg/injection, schedule: Q01DX005 (ip), vehicle: saline with Tween-80",88 % of control and 98 % of control
CCSC(CCC(NC(C)=O)C(=O)O)SCC (stereo not given),T/C,[5],98 % of control
same,T/C,[6],99 % of control
same,T/C,[7],91 % of control
NC1=NS(=O)(=O)c2ccccc21,T/C,"dose: 50.0 mg/kg/injection, schedule: Q01DX005 (ip), vehicle: saline with Tween-80",101 % of control
same,T/C,"dose: 100.0 mg/kg/injection, schedule: Q01DX005 (ip), vehicle: saline with Tween-80",106 % of control
same,T/C,"dose: 200.0 mg/kg/injection, schedule: Q01DX005 (ip), vehicle: saline with Tween-80",99 % of control
O=C1c2c(O)cccc2C(C2OC(CO)C(O)C(O)C2O)c2cc(CO)cc(O)c21 (stereo not given),T/C,"dose: 25.0 mg/kg/injection, schedule: Q01DX005 (ip), vehicle: Klucel (hydroxypropylcellulose) (HPC)",101 % of control
same,T/C,"dose: 50.0 mg/kg/injection, schedule: Q01DX001 (ip), vehicle: water",104 % of control
same,T/C,[5],104 % of control and 107 % of control
same,T/C,"dose: 100.0 mg/kg/injection, schedule: Q01DX001 (ip), vehicle: water",104 % of control
same,T/C,[6],117 % of control and 110 % of control
same,T/C,"dose: 200.0 mg/kg/injection, schedule: Q01DX001 (ip), vehicle: water",104 % of control
O=C(/C=C/c1cccc(Cl)c1)c1ccccc1,T/C,[9],102 % of control
same,T/C,[10],104 % of control
same,T/C,"dose: 150.0 mg/kg/injection, schedule: Q01DX009 (ip), vehicle: Klucel (hydroxypropylcellulose) (HPC)",110 % of control
same,T/C,[11],122 % of control
C=CCNc1nc(-c2ccc(OC)c(OC)c2)cs1,T/C,"dose: 100.0 mg/kg/injection, schedule: Q04DX003 (ip), vehicle: Klucel (hydroxypropylcellulose) (HPC)",100 % of control
same,T/C,"dose: 200.0 mg/kg/injection, schedule: Q04DX003 (ip), vehicle: Klucel (hydroxypropylcellulose) (HPC)",103 % of control
same,T/C,"dose: 400.0 mg/kg/injection, schedule: Q04DX003 (ip), vehicle: Klucel (hydroxypropylcellulose) (HPC)",100 % of control
CNCC1CCCCC1NC (stereo not given),T/C,[8],99 % of control
same,T/C,[1],97 % of control
same,T/C,[2],96 % of control
